# Laboratory results from patent publication US20080033057A1, “Hexahydro-isoalpha acid based protein kinase modulation cancer treatment” (Metaproteomics, LLC, priority 2006, published 2008).
# Marks after values point to notes of the source that are not given here.
# Tests used:
# [1] = test system: 3T3-L1 adipocytes; experiment: Lipogenesis (Oil Red O / BODIPY) in 3T3-L1 adipocytes; type: cell-based, murine; settings: hops compounds 10, 5, 4 or 2 μg/ml; spent hops 50 μg/ml
# Experimental: Prior to experiments, cells were cultured in DMEM containing 10% FBS-HI added 50 units penicillin/ml and 50 μg streptomycin/ml, and maintained in log phase prior to experimental setup. Cells were grown in a 5% CO2 humidified incubator at 37° C. Components of the pre-confluent medium included (1) 10% FBS/DMEM containing 4.5 g glucose/L; (2) 50 U/ml penicillin; and (3) 50 μg/ml streptomycin. Growth medium was made by adding 50 ml of heat inactivated FBS and 5 ml of penicillin/streptomycin to 500 ml DMEM. This medium was stored at 4° C. Before use, the medium was warmed to 37° C. in a water bath.
# T3-T1 cells were seeded at an initial density of 6×10^4 cells/cm^2 in 24-well plates. For two days, the cells were allowed grow to reach confluence. Following confluence, the cells were forced to differentiate into adipocytes by the addition of differentiation medium; this medium consisted of (1) 10% FBS/DMEM (high glucose); (2) 0.5 mM methylisobutylxanthine; (3) 0.5 μM dexamethasone and (4) 10 μg/ml insulin (MDI medium). After three days, the medium was changed to post-differentiation medium consisting of 10 μg/ml insulin in 10% FBS/DMEM.
# AcE was partially dissolved in dimethyl sulfoxide (DMSO) and added to the culture medium to achieve a concentration of 50 μg/ml at Day 0 of differentiation and throughout the maturation phase (Days 6 or 7 (D6/7)). […]
# Oil Red O Staining—Triglyceride content of D6/D7-differentiated 3T3-L1 cells was estimated with Oil Red O according to the method of Kasturi and Joshi [Kasturi, R. and Joshi, V. C. […] The resulting stained oil droplets were extracted from the cells with isopropanol and quantified by spectrophotometric analysis at 540 nm (MEL312e BIO-KINETICS READER, Bio-Tek Instruments, Winooski, Vt.).
# Briefly, media were removed and cells were washed once with non-sterile PBS. […] After 15 min on an orbital shaker (DS-500, VWR Scientific Products, South Plainfield, N.J.) at ambient temperature, the cells were washed with 100 μL PBS followed by the addition of 100 μl PBS for reading for spectrofluorometric determination of BODIPY incorporation into the cells. […]
# [2] = test system: A549 pulmonary epithelial cells; experiment: PGE2 biosynthesis in A549 cells stimulated by mite dust allergen; type: cell-based, human; settings: 10 μg/ml, mite allergen 1000 ng/ml
# Experimental: The filtrate was termed mite dust allergen and used to test for induction of PGE2 biosynthesis in A549 pulmonary epithelial cells.
# Mite allergen was added to the culture medium to achieve a final concentration of 1000 ng/ml. Eighteen hours later, the media were sampled for PGE2 determination.
# [3] = test system: 3T3-L1 adipocytes; experiment: IL-6 secretion from LPS-treated 3T3-L1 adipocytes; type: cell-based, murine; settings: with 100 ng LPS/ml, D5 3T3-L1 adipocytes
# [4] = test system: 3T3-L1 adipocytes; experiment: Adiponectin secretion from TNFα-treated 3T3-L1 adipocytes; type: cell-based, murine
# Experimental: For two days, the cells were allowed grow to reach confluence. […] (3) 0.5 μM dexamethasone and (4) 10 μg/ml insulin (MDI medium). […] Adiponectin Assay—The adiponectin secreted into the medium was quantified using the Mouse Adiponectin Quantikine® Immunoassay kit with no modifications (R&D Systems, Minneapolis, Minn.). […] Statistical Calculations and Interpretation—All assays were preformed in duplicate. […] Differences among the doses and test agents were determined using the Student's t-test without correction for multiple comparisons; the nominal five percent probability of a type I error was selected.
# [5] = test system: 3T3-L1 adipocytes; experiment: Adiponectin secretion from insulin-resistant 3T3-L1 adipocytes; type: cell-based, murine
# Experimental: 3T3-L1 cells were seeded at an initial density of 1×10^4 cells/cm^2 in 96-well plates. For two days, the cells were allowed grow to reach confluence. Following confluence, the cells were forced to differentiate into adipocytes by the addition of differentiation medium; this medium consisted of (1) 10% FBS/DMEM (high glucose); (2) 0.5 mM methylisobutylxanthine; (3) 0.5 μM dexamethasone and (4) 10 μg/ml insulin (MDI medium). From Day 3 through Day 5, the medium was changed to post-differentiation medium consisting of 10 μg/ml insulin in 10% FBS/DMEM.
# Briefly, on Day 6, cells were maintained in serum-free media containing 0.5% bovine serum albumin (BSA) for three hours and then treated with 1 μg insulin/ml plus solvent or insulin plus test material. […] Twenty-four hours later, the supernatant medium was sampled for adiponectin determination.
# Adiponectin Assay—The adiponectin secreted into the medium was quantified using the Mouse Adiponectin Quantikine® Immunoassay kit with no modifications (R&D Systems, Minneapolis, Minn.).
# Statistical Calculations and Interpretation—All assays were preformed in duplicate. […] Differences between the doses were determined using the student's t-test without correction for multiple comparisons; the nominal five percent probability of a type I error was selected. […]
# [6] = test system: 3T3-L1 adipocytes; experiment: Adiponectin secretion from LPS-treated 3T3-L1 adipocytes; type: cell-based, murine; settings: for induction of adiponectin secretion: any of the doses tested
# [7] = Non-fasting serum glucose and insulin in db/db diabetic mice; type: in vivo, mouse
# Experimental: The Model—Male, C57BLKS/J m^+/m^+ Lepr^db (db/db) mice were used to assess the potential of the test materials to reduce fasting serum glucose or insulin concentrations.
# Testing Procedure—Test substances were administered daily by gavage in 0.2% Tween-80. Serum was collected from the retroorbital sinus before the initial dose and ninety minutes after the third and final dose. Non-fasting serum glucose was determined enzymatically by the mutarotase/glucose oxidase method and serum insulin was determined by a mouse specific ELISA.
# The Model—Male, C57BLKS/J m+/m+Leprdb (db/db) mice were used to assess the potential of the test materials to reduce fasting serum glucose or insulin concentrations.
# Testing Procedure—Test substances were administered daily by gavage in 0.2% Tween-80. […] Non-fasting serum glucose was determined enzymatically by the mutarotase/glucose oxidase method and serum insulin was determined by a mouse specific ELISA.
compound,measurement,setting,value
Beta acids,adipogenic (lipogenic) response compared with controls,[1],comparable to indomethacin and troglitazone
same,Percent PGE2 Inhibition,[2],83%
"Cc1c(C)c2c(c(C)c1O)CCC(C)(COc1ccc(CC3SC(=O)NC3=O)cc1)O2 (stereo not shown) [Troglitazone, troglitazone]",Concentration providing the maximum inhibition of IL-6 secretion,[3],10.0 µg/mL
same,maximum increase of adiponectin secretion from the TNFα solvent control,[4]; 10 ng/ml TNFα,51%
CC(C)CCC1=C(O)C(C(=O)C(C)C)=C(O)C(CCC(C)C)(CCC(C)C)C1=O [Hexahydrocolupulone (HHCL)],Adiponectin/IL-6,"[5]; 50.0 μg/ml, ratio of adiponectin index to IL-6 index, insulin-resistant 3T3-L1",0.60#
O=C(O)c1ccccc1O [salicylic acid],induction of adiponectin secretion,[6]; LPS 100 ng/ml,failed to induce adiponectin secretion
"COc1ccc2c(c1)c(CC(=O)O)c(C)n2C(=O)c1ccc(Cl)cc1 [Indomethacin, indomethacin]",Concentration providing the maximum inhibition of IL-6 secretion,[3],5.00 µg/mL
same,adiponectin secretion,[4]; 0.5 ng TNFα/ml,dose-dependant decrease in adiponectin secretion
same,increase of adiponectin secretion in the presence of TNFα,"[4]; 10 ng TNFα/ml, Example 16",94%
same,optimal concentration for adiponectin secretion,"[4]; 10 ng TNFα/ml, Example 16",2.5 µg/mL
same,Adiponectin/IL-6,"[4]; 10 ng TNFα/ml, […]",2.00*
same,maximum adiponectin stimulation,"[6]; LPS 100 ng/ml, […]",9%
same,Concentration of maximum stimulation of adiponectin secretion,[6]; LPS-treated D5 3T3-L1 adipocytes,2.50 µg/mL
CN(CCOc1ccc(CC2SC(=O)NC2=O)cc1)c1ccccn1 (stereo not shown) [rosiglitazone],Glucose [% Pretreatment],"[7]; db/db mice, non-fasting serum, 1.0 mg/kg-day by gavage, three days",83.0# % Pretreatment
CN(C)C(=N)N=C(N)N [metformin],serum glucose relative to the controls,[7]; three consecutive days,decreased both serum glucose and insulin concentrations
"CCc1ccc(CCOc2ccc(CC3SC(=O)NC3=O)cc2)nc1 (stereo not shown) [Pioglitazone, pioglitazone]",Concentration providing the maximum inhibition of IL-6 secretion,[3],5.00 µg/mL
same,optimal concentration for adiponectin secretion,"[4]; 10 ng TNFα/ml, Example 16",1.25 µg/mL
same,Concentration of maximum adiponectin secretion over four doses,"[4]; 10 ng TNFα/ml, Example 17",1.25 µg/mL
"COc1cc(O)c(CC=C(C)C)c(O)c1C(=O)/C=C/c1ccc(O)cc1 [Xanthohumol, xanthohumol]",adipogenic (lipogenic) response compared with controls,[1],comparable to indomethacin and troglitazone
"CC(=O)Oc1ccccc1C(=O)O [Aspirin, aspirin]",induction of adiponectin secretion,[6]; LPS 100 ng/ml,failed to induce adiponectin secretion
"CC(C)CCC1=C(O)C(C(=O)C(C)C)=C(O)C(CCC(C)C)(CCC(C)C)C1=O [Hexahydro colupulone, hexahydrocolupulone]",adipogenic (lipogenic) response compared with controls,[1],failed to elicit a lipogenic response greater than the solvent controls
same,dose of maximal observed adiponectin secretion,[5]; four doses tested,12.5 µg/mL
